The record followed here is patent US20170151295A1, “USE OF CHI-JU-DI-HUANG-WAN IN TREATING RETINAL ISCHEMIA OR A DISEASE, CONDITION, OR DISORDER ASSOCIATED WITH RETINAL ISCHEMIA” (priority 2015, published 2017).

Common to all, as to format: in vivo, Wistar rats
Test [1] relates to MMP-9. Put plainly: Gel zymography, retinal MMP-9 activity after I/R. The following applies: intravitreal 2 nmole 15 min before ischemia, 24 h after ischemia.
Another test concerns P-p38 MAPK. Put plainly: Western blotting, retinal P-p38 MAPK after I/R. The following applies: intravitreal 2 nmole 15 min before ischemia, I/R 24 h. On the technique in general: Immunoblotting shows a protein as a band on a membrane.
Test [2] has as its system MMP-9. Put plainly: Western blotting, retinal MMP-9 after I/R. The following applies: intravitreal 2 nmole 15 min before ischemia, I/R 24 h.

Procedure for P-p38 MAPK: Intravitreal injections were performed using a 30-gauge needle attached to a 25 μl syringe after pupil dilation with 1% tropicamide and 2.5% phenylephrine. In certain instances, intravitreal injections of 4 μl of 2 nmole SB203580 (Calbiochem, San Diego, Calif.) or vehicle (an equal volume of DMSO) were performed on ischemic eyes fifteen minutes before pressure-induced retinal ischemia.
One day following retinal ischemia with preadministration of relevant compounds or following a sham procedure, the animals were sacrificed. Retinal samples were retrieved and sonicated in a lysis buffer, mammalian protein extraction reagent (Pierce, Ill.).

Take `C[S+]([O-])c1ccc(-c2nc(-c3ccncc3)c(-c3ccc(F)cc3)[nH]2)cc1` (stereo not drawn) [SB203580]: the “MMP-9/β-actin (gel zymography, MMP-9 activity)” value in the test with MMP-9 [1] was 1.49 ± 0.21. Moreover, in the test with P-p38 MAPK, the P-p38/β-actin protein ratio was determined as 0.23 ± 0.05. Further, in the test on MMP-9 [2], the “MMP-9/β-actin protein ratio (Western blotting)” value was found to be 0.31 ± 0.10.
